Paper PMC5144158 (Chemical research in toxicology, 2016)
pEC50: −log10 of the molar value. Entries after “also recorded” stand apart in the source; their conditions may differ. Where two headings read alike, the source gives them in different places.

What was measured:
[1] = tested on: rodent PPAR and CAR target genes; settings: in vivo rodent studies, ref [29],[30]; cited from earlier work
[2] = target: T1, hCAR1 (Homo sapiens, UniProt Q14994); assay: Transactivation luciferase reporter assay in COS-1 cells, CMV2-CAR1; format: cell-based; settings: COS-1, 2B6-XREM-PBREM reporter, ANDRO 10 μM, 24 h, Figure 2
T1 sequence (Q14994 1-348 isoform Q14994-2): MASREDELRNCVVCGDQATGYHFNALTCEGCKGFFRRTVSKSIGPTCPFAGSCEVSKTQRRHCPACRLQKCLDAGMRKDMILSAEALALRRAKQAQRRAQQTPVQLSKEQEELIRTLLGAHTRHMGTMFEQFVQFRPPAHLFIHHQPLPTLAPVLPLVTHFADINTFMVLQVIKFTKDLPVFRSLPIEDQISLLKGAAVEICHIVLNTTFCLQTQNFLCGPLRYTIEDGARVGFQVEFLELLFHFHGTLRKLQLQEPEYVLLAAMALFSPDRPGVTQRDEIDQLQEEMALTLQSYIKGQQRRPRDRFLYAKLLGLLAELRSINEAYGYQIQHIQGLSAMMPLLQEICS

[3] = tested on: hPPARα, hPPARβ/∂, and hPPARγ; assay: PPRE reporter transactivation assays, statements on the hPPARs collectively; format: cell-based, human
[4] = tested on: female rodents; settings: ref [8]; cited from earlier work
[5] = target: T2, hCAR3 (Homo sapiens, UniProt Q14994, DEL233-236); assay: Transactivation luciferase reporter assay in COS-1 cells, CMV2-CAR3; format: cell-based; settings: COS-1, 2B6-XREM-PBREM reporter, 24 h, Figure 2
T2 sequence (Q14994 with tags, fused parts or gaps isoform Q14994-8 DEL233-236): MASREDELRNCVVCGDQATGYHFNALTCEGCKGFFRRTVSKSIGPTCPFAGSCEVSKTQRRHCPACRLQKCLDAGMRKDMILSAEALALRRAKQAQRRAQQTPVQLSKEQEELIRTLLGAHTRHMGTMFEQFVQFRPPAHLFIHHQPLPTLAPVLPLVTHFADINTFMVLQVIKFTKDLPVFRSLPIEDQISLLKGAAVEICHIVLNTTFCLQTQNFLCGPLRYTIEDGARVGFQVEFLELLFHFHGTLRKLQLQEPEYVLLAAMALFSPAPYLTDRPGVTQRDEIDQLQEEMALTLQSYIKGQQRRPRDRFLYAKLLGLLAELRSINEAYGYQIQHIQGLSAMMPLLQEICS
T2 sequence (P19793 1-462 partner): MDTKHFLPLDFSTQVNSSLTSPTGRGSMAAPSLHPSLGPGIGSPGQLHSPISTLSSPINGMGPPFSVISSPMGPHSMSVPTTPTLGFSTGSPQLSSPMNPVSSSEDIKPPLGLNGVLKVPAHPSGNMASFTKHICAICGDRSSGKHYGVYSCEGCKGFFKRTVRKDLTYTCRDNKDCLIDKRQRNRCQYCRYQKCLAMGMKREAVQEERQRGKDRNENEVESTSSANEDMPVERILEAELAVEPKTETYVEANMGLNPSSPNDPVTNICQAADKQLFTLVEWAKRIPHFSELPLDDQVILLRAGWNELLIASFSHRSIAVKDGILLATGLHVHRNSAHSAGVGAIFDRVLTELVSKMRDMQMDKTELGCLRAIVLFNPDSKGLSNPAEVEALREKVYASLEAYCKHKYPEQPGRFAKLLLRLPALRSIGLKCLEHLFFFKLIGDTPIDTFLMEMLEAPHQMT

[6] = target: T3, hCAR2 (Homo sapiens, UniProt Q14994); assay: Transactivation luciferase reporter assay in COS-1 cells, CMV2-CAR2; format: cell-based; settings: for activation of hCAR2 (screen): COS-1, 2B6-XREM-PBREM reporter, Figure 2
T3 sequence (Q14994 1-352): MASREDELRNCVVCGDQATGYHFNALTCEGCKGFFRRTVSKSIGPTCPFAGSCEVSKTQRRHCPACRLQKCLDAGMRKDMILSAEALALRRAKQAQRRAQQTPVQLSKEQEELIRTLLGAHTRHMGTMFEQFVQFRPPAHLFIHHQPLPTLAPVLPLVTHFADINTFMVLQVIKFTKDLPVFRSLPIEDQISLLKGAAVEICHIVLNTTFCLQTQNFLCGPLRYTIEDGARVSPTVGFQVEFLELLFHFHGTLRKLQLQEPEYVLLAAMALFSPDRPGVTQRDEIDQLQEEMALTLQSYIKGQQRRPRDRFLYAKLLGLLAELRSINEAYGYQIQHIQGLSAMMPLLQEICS
T3 sequence (P19793 1-462 partner): T2 sequence (P19793 1-462 partner)

[7] = tested on: male rodents; settings: varying treatment modalities, ref [5]–[7]; cited from earlier work
[8] = target: T4, hPXR (Homo sapiens, UniProt O75469); assay: Transactivation luciferase reporter assay in COS-1 cells, CMV2-PXR; settings: for activation of hPXR (screen): COS-1, 2B6-XREM-PBREM reporter, Figure 2
T4 sequence (O75469 1-434): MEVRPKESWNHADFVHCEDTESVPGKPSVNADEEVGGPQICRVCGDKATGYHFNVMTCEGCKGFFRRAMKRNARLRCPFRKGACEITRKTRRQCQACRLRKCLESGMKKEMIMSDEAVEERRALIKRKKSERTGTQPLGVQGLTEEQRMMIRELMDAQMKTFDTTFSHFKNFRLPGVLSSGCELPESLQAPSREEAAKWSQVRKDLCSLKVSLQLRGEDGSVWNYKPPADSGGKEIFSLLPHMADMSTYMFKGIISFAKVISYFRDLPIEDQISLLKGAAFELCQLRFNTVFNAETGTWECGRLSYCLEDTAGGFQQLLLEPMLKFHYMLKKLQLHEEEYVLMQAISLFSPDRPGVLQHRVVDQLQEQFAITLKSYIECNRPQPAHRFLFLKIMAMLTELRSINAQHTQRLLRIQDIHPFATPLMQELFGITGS
T4 sequence (P19793 1-462 partner): T2 sequence (P19793 1-462 partner)

[9] = tested on: Wild-type mice; settings: PPARα knockout mice not protected, ref [59]; cited from earlier work
[10] = target: T5, hPPARα (Homo sapiens, UniProt Q07869); format: cell-based; settings: COS-1, 24 h, Figure 4A
T5 sequence (Q07869 1-468): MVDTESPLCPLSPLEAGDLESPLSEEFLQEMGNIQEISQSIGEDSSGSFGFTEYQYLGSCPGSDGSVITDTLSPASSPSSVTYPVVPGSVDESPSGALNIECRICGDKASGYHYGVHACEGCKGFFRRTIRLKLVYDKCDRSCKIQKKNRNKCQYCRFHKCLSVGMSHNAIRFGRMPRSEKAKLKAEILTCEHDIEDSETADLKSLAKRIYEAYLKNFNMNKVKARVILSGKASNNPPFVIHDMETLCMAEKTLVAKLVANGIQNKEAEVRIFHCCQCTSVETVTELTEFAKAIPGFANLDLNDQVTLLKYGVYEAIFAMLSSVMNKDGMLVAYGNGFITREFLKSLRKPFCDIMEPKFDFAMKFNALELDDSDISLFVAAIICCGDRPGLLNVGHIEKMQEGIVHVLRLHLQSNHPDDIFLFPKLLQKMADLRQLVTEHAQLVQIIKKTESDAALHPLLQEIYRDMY

[11] = tested on: CYP2B6; assay: Primary human hepatocyte mRNA expression; settings: donor HH3, 30 μM, 24 h
[12] = target: hPXR (Homo sapiens, UniProt O75469); assay: Mammalian two-hybrid assay, PXR LBD with SRC1, COS-1 cells; settings: COS-1, 24 h, Figure 5
[13] = tested on: 3T3L1 cells; settings: cited from earlier work
[14] = tested on: PPAR target genes (ACOX1, ANGPTL4, CPT2, PDK4); assay: Primary human hepatocyte mRNA expression; format: cell-based; settings: primary human hepatocytes HH1–HH3, 24 h; for expression of PPAR target genes (overall): MEHP/MiNP 0.1–30 μM
[15] = target: hCAR2 (Homo sapiens, UniProt Q14994); assay: Mammalian two-hybrid assay, CAR LBD with SRC1, COS-1 cells; format: cell-based; settings: COS-1, 24 h, Figure 5
[16] = tested on: hCAR variants and hPXR; settings: transactivation assays, ref [47]; cited from earlier work

## CCCCC(CC)COC(=O)c1ccccc1C(=O)OCC(CC)CCCC (stereo not shown) [DEHP, di(2-ethylhexyl) phthalate]
[1]
  activation of rodent PPAR and CAR target genes: activation of rodent PPAR and CAR target genes
[2]
  activation of hCAR1 (screen): only minimal activity; also recorded: little or no activation of hCAR1
[3]; COS-1, 24 h, Figure 3, effects only at highest test dose (100 μM)
  activation of the PPRE reporter by hPPARs (screen): neither DEHP nor DiNP activated the hPPARs
[3]; hPPARα and hPPARγ, higher doses than screening, data not shown
  activation of the hPPARs (dose–response, higher doses): neither of the diphthalates activated the hPPARs
[4]
  estradiol levels and estrus cycle: Decreased estradiol levels and estrus cycle disruptions
[5]
  activation of hCAR3 (screen): only minimal activity
[6]
  pEC50: 7.00
[6]; 24 h
  activation of hCAR2 (screen): activated hCAR2 and hPXR
[6]; COS-1, CYP2B6-PBREM-XREM reporter, 24 h, Figure 6/Table 4
  max fold activation (hCAR2): 7.1 fold
[7]
  testosterone levels, reproductive organ weights, sperm counts, sperm motility: decrease testosterone levels, reproductive organ weights, sperm counts, and sperm motility
[8]
  pEC50: 5.46
[8]; 24 h
  activation of hPXR (screen): activated hCAR2 and hPXR
[8]; COS-1, 3A4-XREM reporter, 24 h, Figure 6/Table 4
  max fold activation (hPXR): 13.7 fold
[9]
  phenotype on control diet or high fat diet: exhibited a lean phenotype

## CCCCC(CC)COC(=O)c1ccccc1C(=O)O (stereo not shown) [MEHP, mono-(2-ethylhexyl)phthalate]
[2]
  activation of hCAR1 (screen): slight activation of hCAR1 and hCAR3 at the highest doses; also recorded: little or no activation of hCAR1
[10]
  activation of hPPARα (dose–response): very little activation of hPPARα
[11]
  CYP2B6 mRNA expression: increased expression of CYP2B6
[12]
  hPXR interaction with SRC1 / activation (mammalian two-hybrid): interacted with SRC1 in a dose-dependent manner
[5]
  activation of hCAR3 (screen): slight activation of hCAR1 and hCAR3 at the highest doses
[13]; 3T3L1 cells, ref [42]
  expression of PPARγ target genes involved in adipocyte differentiation: induced expression of PPARγ target genes
[13]; 3T3L1 preadipocytes, ref [41],[42]
  cellular lipid and triglyceride content: increased cellular lipid and triglyceride content
[14]
  expression of PPAR target genes (overall): Neither MEHP nor MiNP induced expression of any PPAR target genes; also recorded: no activation of PPAR target genes
[6]; 24 h
  activation of hCAR2 (screen): significant activation of hCAR2
[6]; transactivation dose–response, Figure 4B
  rank order potency across receptors: hCAR2 > hPXR > hPPARγ ≥ PPARβ/∂
[8]; 24 h
  activation of hPXR (screen): moderate activation of hPXR
[8]; read-out: EC50 (hPXR), COS-1, 3A4-XREM reporter, 24 h, Figure 6/Table 4
  pEC50: 4.57
[15]
  hCAR interaction with SRC1 / activation (mammalian two-hybrid): interacted with SRC1 in a dose-dependent manner

## Cc1c(C)c2c(c(C)c1O)CCC(C)(COc1ccc(CC3SC(=O)NC3=O)cc1)O2 (stereo not shown) [TG, troglitazone]
[14]; 50 μM WY14643, 30 μM TG
  ANGPTL4 mRNA expression: inducing only ANG and CPT in HH3
  CPT2 mRNA expression: inducing only ANG and CPT in HH3
[14]
  expression of PPAR target genes (overall): weak inducer of PPAR target genes
[16]
  activation of hCAR variants and hPXR: activates hCAR variants and hPXR
